The results in this text go back to PubChem BioAssay AID1996.

Converted amounts (≈) assume the structure as drawn.

As a reminder, the solubility (kinetic) is solubility judged after dilution from a stock solution rather than from solid.

The conditions of this data set: buffer; pH 7.4; 200.0 µM.
Consider `NC(=O)c1c(NC(=O)c2ccccc2)sc2c1CCC2`, for which the kinetic solubility turned out to be 1.3 µg/mL (≈ 4.54 µM). The result for `c1cncc(-c2noc(-c3ccc4ccccc4c3)n2)c1` reads less than 0.2 µg/mL; that for `O=C(Nc1sc2c(c1C(=O)O)CCCC2)c1ccccc1Cl`, greater than 50.4 µg/mL; that for `O=C(OCC(=O)N1CCc2ccccc21)[C@@H]1CC(O)CN1S(=O)(=O)c1ccccc1[N+](=O)[O-]` (stereo partly drawn), 20.4 µg/mL (≈ 42.9 µM). For `COc1ccc(-c2nc(-c3cccnc3)no2)cc1OC`, the kinetic solubility worked out at 25.8 µg/mL (≈ 91.1 µM). In turn, `Cc1cc(NC(=O)C(C)Oc2ccccc2)no1` (stereo not drawn) yielded a solubility (kinetic) greater than 36.9 µg/mL. As to `O=C(Nc1ccc(Nc2ccccc2)cc1)c1c(Cl)cccc1Cl`, the kinetic solubility came out at 1.2 µg/mL (≈ 3.36 µM).

Compound `Cc1ccc(N(C)S(=O)(=O)c2cccc(C(=O)OCC(=O)c3c(N)n(C)c(=O)n(C)c3=O)c2)cc1` showed a solubility (kinetic) of 8.1 µg/mL (≈ 16.2 µM). With `O=C(CN1CCOCC1)NNC(=S)Nc1ccc(Cl)cc1`, the kinetic solubility was greater than 49.3 µg/mL. The result for `Cc1ccc(NC2CC(C)NC(=S)N2)cc1` (stereo not drawn) reads 33.1 µg/mL (≈ 141 µM). As for `Cl.N=C1CCCN1c1ccccc1O`, the kinetic solubility is 30.6 µg/mL. `O=C(COC(=O)CNC(=O)C1CCCCC1)NCc1ccc(Cl)cc1` came in with a kinetic solubility of 49.5 µg/mL (≈ 135 µM). Compound `CNc1cc(=O)n(C)c(=O)n1-c1ccccc1` yielded a solubility (kinetic) greater than 34.7 µg/mL.

In turn, `O=S(=O)(c1cccc2nsnc12)N1CCNCC1` gave a solubility (kinetic) greater than 42.7 µg/mL. The value for `Cc1ccsc1C1C(C#N)=C(N)OC2=C1C(=O)CC(C)(C)C2` (stereo not drawn) was greater than 47.2 µg/mL; that for `O=C(CNC(=O)c1sc2ccccc2c1Cl)NC1CC1` was 4 µg/mL (≈ 13 µM). `Cc1ccc2nc(CCl)[n+]([O-])c(-c3ccccc3)c2c1` returned a solubility (kinetic) of 27.8 µg/mL (≈ 97.6 µM). The compound `C/C(CC(=O)Nc1cc(C)ccn1)=N\NC(=O)c1ccccc1C` had a solubility (kinetic) greater than 48.7 µg/mL.

As for `COC(=O)c1scc(S(=O)(=O)C(C)(C)C)c1N`, the solubility (kinetic) was 26 µg/mL (≈ 93.7 µM). Compound `CCc1nnc(NC(=O)c2ccc(C)o2)s1` returned a kinetic solubility greater than 35.6 µg/mL.

`COc1cccc(OP(=O)(Nc2ccccc2)Oc2cccc(OC)c2)c1` registered a kinetic solubility of less than 0.8 µg/mL.

Turning to `CSc1ccc(S(=O)(=O)N2CC(=O)Nc3ccccc32)cc1`, the kinetic solubility amounted to 14.4 µg/mL (≈ 43.1 µM). In the case of `CCOc1cccc(C2CC(=O)Nc3cc(OC)c(OC)cc32)c1` (stereo not drawn), the solubility (kinetic) turned out to be 12.5 µg/mL (≈ 38.2 µM). In turn, `COc1ccc(/C=C/C(=O)NCCCN2CCOCC2)cc1` gave a kinetic solubility of 43.8 µg/mL (≈ 144 µM). In turn, `N#C/C(=C\C=C\c1ccccc1[N+](=O)[O-])C(=O)NCc1ccccc1` had a solubility (kinetic) of 3.7 µg/mL (≈ 11.1 µM).

In turn, `COCCNc1nc2c(c(=O)n(Cc3ccccc3F)c(=O)n2C)n1C` showed a kinetic solubility of 8.5 µg/mL (≈ 23.5 µM). In the case of `Cc1ccc(N=C2CSC(=O)N2)cc1`, the solubility (kinetic) turned out to be 23.4 µg/mL (≈ 113 µM). The result for `Cc1cc(OC(=O)c2cccc(Cl)c2)c([N+](=O)[O-])c(=O)[nH]1` reads 40.9 µg/mL (≈ 133 µM). In turn, `O=C(O)CCC(=O)Nc1ccc(Oc2ncnc3cc(Cl)ccc23)nc1` came in with a solubility (kinetic) greater than 55.9 µg/mL.

With `Cc1ccc(OCC(=O)N2CCC3(CC2)CC(=O)c2ccccc2O3)cc1`, the solubility (kinetic) was determined as 54.2 µg/mL (≈ 148 µM).

Consider `CN=C(C)/C(C(=O)OC)=C(/O)c1ccccc1F`, for which the solubility (kinetic) was 32.3 µg/mL (≈ 129 µM). The value for `Cc1ccc(C(=O)OCC(=O)Nc2ccccc2Cl)c(O)c1` was 0.8 µg/mL (≈ 2.5 µM); that for `O=C(O)c1ccc2c(c1)C(=O)N(c1nccs1)C2=O` was greater than 41.1 µg/mL; that for `O=C1C2C3C=CC(CC3)C2C(=O)N1/N=C/c1ccco1` (stereo not drawn) was greater than 40.5 µg/mL. In turn, `CCOC(=O)c1cc2cc([N+](=O)[O-])ccc2oc1=O` gave a solubility (kinetic) of 18.9 µg/mL (≈ 71.8 µM). In turn, `N#Cc1cn(-c2cccc(C(F)(F)F)c2)c(=O)[nH]c1=O` came in with a kinetic solubility greater than 42.2 µg/mL. `C[n+]1ccccc1/C=N/O.[I-]` came in with a solubility (kinetic) greater than 39.6 µg/mL. `COC(=O)[C@H](CCSC)NC(=O)NC1CC1` displayed a solubility (kinetic) greater than 36.9 µg/mL.

`Nc1c(C(=O)N2CCOCC2)sc2nc3c(cc12)CCCC3` had a kinetic solubility greater than 47.6 µg/mL.

In the case of `CC(OC(=O)Cn1cc(C(F)(F)F)ccc1=O)C(=O)N(C)c1ccccc1` (stereo not drawn), the solubility (kinetic) stood at 57.2 µg/mL (≈ 150 µM). The value for `CCN(CC)C(=O)C1CCCN(Cc2nc(-c3cnccn3)no2)C1` (stereo not drawn) was 40.4 µg/mL (≈ 117 µM).

For `CC(=O)c1cccc(NC(=O)c2ccc(C)o2)c1`, the kinetic solubility was greater than 36.5 µg/mL. In turn, `Cc1cccc(NS(=O)(=O)c2ccc(Cl)cc2)n1` had a solubility (kinetic) of 31.6 µg/mL (≈ 112 µM). As to `CC(C)(C)C(=O)NC1CCSC1=O` (stereo not drawn), the kinetic solubility is greater than 30.2 µg/mL.

On to `N/C(=N\OC(=O)C1CCCCC1)c1cccc(Br)c1`, for which the kinetic solubility is 3.5 µg/mL (≈ 10.8 µM). `CSc1ccccc1NC(=O)Cc1ccccc1` yielded a solubility (kinetic) greater than 38.6 µg/mL. Turning to `S=C(NCc1ccccc1)Nc1ccc(Oc2ccccc2)cc1`, the kinetic solubility stood at 6.8 µg/mL (≈ 20.3 µM). As for `CCC1CCCCN1C(=O)COC(=O)COc1ccc(Br)cc1` (stereo not drawn), the kinetic solubility was greater than 57.6 µg/mL.
